Data published in US12110293B2, “Substituted triazolo quinoxaline derivatives” (GRÜNENTHAL GMBH, priority 2018, dated 2024).

Molecular target: T1, glucocorticoid receptor (Homo sapiens, UniProt P04150)
T1 construct: expressed in transfected cells
T1 sequence (P04150 524-758 limits assumed): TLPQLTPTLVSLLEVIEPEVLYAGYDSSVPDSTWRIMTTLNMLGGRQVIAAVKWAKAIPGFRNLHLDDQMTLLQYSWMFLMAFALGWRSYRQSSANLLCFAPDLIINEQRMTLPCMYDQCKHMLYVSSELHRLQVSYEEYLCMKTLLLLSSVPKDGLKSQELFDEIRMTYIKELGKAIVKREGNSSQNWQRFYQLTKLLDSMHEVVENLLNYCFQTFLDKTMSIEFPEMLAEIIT
Test: Agonistic mode of action on the glucocorticoid receptor (CHO-Gal4/GR luciferase reporter cell line)
Type: cell-based
Conditions: range class observed in the agonistic assay or the antagonistic assay (CHO-Gal4/GR reporter cells); table does not say which mode applies per example
Outline: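 CHO cells stably carrying GAL4 DBD–GR ligand-binding-domain fusion and GAL4-UAS firefly luciferase reporter, 5000 cells/well grown 24 h, then compounds added in Opti-MEM at 8 half-log concentrations from 10 μM to 0.003 μM (0.5% DMSO), quadruplicates. Agonist-induced luminescence read on FLIPR Tetra; EC50 calculated.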

Structure (SMILES)	IC50 or EC50 (agonist or antagonist mode not specified)
CC#CCc1nnc2n1-c1c(cc(F)c(-c3cccc4c(C)c[nH]c34)c1F)NC2(C)C [Example 70, 1-(but-2-yn-1-yl)-7,9-difluoro-4,4-dimethyl-8-(3-methyl-1H-indol-7-yl)-4,5-dihydro-[1,2,4]triazolo[4,3-a]quinoxaline]	< 100 nM
Cc1c(-c2cccc3c2cnn3S(C)(=O)=O)c(Cl)cc2c1-n1c(C)nnc1C(C)(C)N2 [Example 386, 7-Chloro-1,4,4,9-tetramethyl-8-(1-methylsulfonyl-1H-indazol-4-yl)-5H-[1,2,4]triazolo[4,3-a] quinoxaline]	1000 to 15000 nM
CCc1nnc2n1-c1c(cc(F)c(-c3cccc4c3cnn4C)c1C)NC2(C)C [Example 240, 1-Ethyl-7-fluoro-4,4,9-trimethyl-8-(1-methyl-1H-indazol-4-yl)-5H-[1,2,4]triazolo[4,3-a]quinoxaline]	1000 to 15000 nM
COCCn1ccc2c(-c3c(C)cc4c(c3C)-n3c(C)nnc3C(C)(C)N4)cccc21 [Example 331, 8-[1-(2-Methoxy-ethyl)-1H-indol-4-yl]-1,4,4,7,9-pentamethyl-5H-[1,2,4]triazolo[4,3-a]quinoxaline]	1000 to 15000 nM
Cc1nnc2n1-c1c(cc(Cl)c(-c3cccc4c3cnn4C)c1F)NC2(C)C [Example 285, 7-Chloro-9-fluoro-1,4,4-trimethyl-8-(1-methyl-1H-indazol-4-yl)-5H-[1,2,4]triazolo[4,3-a]quinoxaline]	1000 to 15000 nM
CC#Cc1c[nH]c2c(-c3c(F)cc4c(c3F)-n3c(CC)nnc3C(C)(C)N4)cc(F)cc12 [Example 16, 1-ethyl-7,9-difluoro-8-(5-fluoro-3-(prop-1-yn-1-yl)-1H-indol-7-yl)-4,4-dimethyl-4,5-dihydro-[1,2,4]triazolo[4,3-a]quinoxaline]	100 to 1000 nM
CCS(=O)(=O)n1ncc2c(-c3c(F)cc4c(c3C(F)(F)F)-n3c(C)nnc3C(C)(C)N4)cc(F)cc21 [Example 448, 8-[1-(Ethylsulfonyl)-6-fluoro-1H-indazol-4-yl]-7-fluoro-1,4,4-trimethyl-9-(trifluoromethyl)-5H-[1,2,4]triazolo[4,3-a]quinoxaline]	100 to 1000 nM
Cc1nnc2n1-c1c(ccc(-c3cccc4c3ccn4S(C)(=O)=O)c1C(F)F)NC2(C)C [Example 528, 9-(Difluoro-methyl)-1,4,4-trimethyl-8-(1-methylsulfonyl-1H-indol-4-yl)-5H-[1,2,4]triazolo [4,3-a]quinoxaline]	100 to 1000 nM
Cc1c(-c2cccc3c2ccn3C)c(F)cc2c1-n1c(C)nnc1C(C)(C)N2 [Example 486, 7-Fluoro-1,4,4,9-tetramethyl-8-(1-methyl-1H-indol-4-yl)-5H-[1,2,4]triazolo[4,3-a]quinoxaline]	< 100 nM
COc1c(-c2cc(C(F)(F)F)cc3[nH]ccc23)c(F)cc2c1-n1c(C)nnc1C(C)(C)N2 [Example 474, 7-Fluoro-9-methoxy-1,4,4-trimethyl-8-[6-(trifluoromethyl)-1H-indol-4-yl]-5H-[1,2,4]triazolo[4,3-a] quinoxaline]	100 to 1000 nM
Cc1nnc2n1-c1c(cc(F)c(-c3cc(F)cc4c3ccn4S(C)(=O)=O)c1C(F)(F)F)NC2(C)C [Example 37, 7-fluoro-8-(6-fluoro-1-(methylsulfonyl)-1H-indol-4-yl)-1,4,4-trimethyl-9-(trifluoromethyl)-4,5-dihydro-[1,2,4]triazolo[4,3-a]quinoxaline]	< 100 nM
Cc1nnc2n1-c1c(cc(F)c(-c3cccc4c3ccn4CCN(C)C)c1F)NC2(C)C [Example 383, [2-[4-(7,9-Difluoro-1,4,4-trimethyl-5H-[1,2,4]triazolo[4,3-a]quinoxalin-8-yl)-1H-indol-1-yl]-ethyl]-dimethyl-amine]	1000 to 15000 nM
COCCn1ccc2c(-c3c(Cl)cc4c(c3F)-n3c(C)nnc3C(C)(C)N4)cc(F)cc21 [Example 404, 7-Chloro-9-fluoro-8-[6-fluoro-1-(2-methoxy-ethyl)-1H-indol-4-yl]-1,4,4-trimethyl-5H-[1,2,4]triazolo[4,3-a]quinoxaline]	100 to 1000 nM
Cc1nnc2n1-c1c(cc(F)c(-c3cc(F)cc4c3cnn4S(C)(=O)=O)c1C(F)(F)F)NC2(C)C [Example 454, 7-Fluoro-8-(6-fluoro-1-methylsulfonyl-1H-indazol-4-yl)-1,4,4-trimethyl-9-(trifluoromethyl)-5H-[1,2,4]triazolo[4,3-a]quinoxaline]	100 to 1000 nM
Cc1nnc2n1-c1c(cc(C(F)F)c(-c3cccc4[nH]ccc34)c1F)NC2(C)C [Example 343, 7-(Difluoro-methyl)-9-fluoro-8-(1H-indol-4-yl)-1,4,4-trimethyl-5H-[1,2,4]triazolo[4,3-a]quinoxaline]	1000 to 15000 nM
Cc1c(-c2cc(F)cc3c2ccn3C)c(F)cc2c1-n1c(C)nnc1C(C)(C)N2 [Example 518, 7-Fluoro-8-(6-fluoro-1-methyl-1H-indol-4-yl)-1,4,4,9-tetramethyl-5H-[1,2,4]triazolo[4,3-a]quinoxaline]	< 100 nM
Cc1c[nH]c2c(-c3c(F)cc4c(c3Cl)-n3c(C)nnc3C(C)(C)N4)cc(F)cc12 [Example 30]	< 100 nM
COCCn1ccc2c(-c3c(OC(F)(F)F)cc4c(c3C)-n3c(C)nnc3C(C)(C)N4)cccc21 [Example 460, 8-[1-(2-Methoxy-ethyl)-1H-indol-4-yl]-1,4,4,9-tetramethyl-7-(trifluoromethyloxy)-5H-[1,2,4]triazolo[4,3-a]quinoxaline]	100 to 1000 nM
Cc1c(-c2cc(F)cc3c2ccn3CCO)c(OC(F)(F)F)cc2c1-n1c(C)nnc1C(C)(C)N2 [Example 471, 2-[6-Fluoro-4-[1,4,4,9-tetramethyl-7-(trifluoromethyloxy)-5H-[1,2,4]triazolo[4,3-a]quinoxalin-8-yl]-1H-indol-1-yl]-ethanol]	100 to 1000 nM
CCn1ncc2c(-c3c(F)cc4c(c3F)-n3c(C)nnc3C(C)(C)N4)cccc21 [Example 236, 8-(1-Ethyl-1H-indazol-4-yl)-7,9-difluoro-1,4,4-trimethyl-5H-[1,2,4]triazolo[4,3-a]quinoxaline]	100 to 1000 nM
Cc1nnc2n1-c1c(cc(F)c(-c3cc(Cl)cc4[nH]ccc34)c1F)NC2(C)C [Example 511, 8-(6-Chloro-1H-indol-4-yl)-7,9-difluoro-l,4,4-trimethyl-5H-[1,2,4]triazolo[4,3-a]quinoxaline]	< 100 nM
Cc1c[nH]c2c(-c3c(C(F)F)cc4c(c3F)-n3c(C)nnc3C(C)(C)N4)cccc12 [Example 306, 7-(Difluoro-methyl)-9-fluoro-1,4,4-trimethyl-8-(3-methyl-1H-indol-7-yl)-5H-[1,2,4]triazolo[4,3-a]quinoxaline]	100 to 1000 nM
Cc1nnc2n1-c1c(cc(F)c(-c3cccc4c3cc(C(F)(F)F)n4C3CC3)c1F)NC2(C)C [Example 312, 8-[1-Cyclopropyl-2-(trifluoromethyl)-1H-indol-4-yl]-7,9-difluoro-1,4,4-trimethyl-5H-[1,2,4]triazolo[4,3-a]quinoxaline]	100 to 1000 nM
Cc1nnc2n1-c1c(cc(F)c(-c3cccc4cc[nH]c34)c1C(F)(F)F)NC2(C)C [Example 86, 7-fluoro-8-(1H-indol-7-yl)-1,4,4-trimethyl-9-(trifluoromethyl)-4,5-dihydro-[1,2,4]triazolo[4,3-a]quinoxaline]	100 to 1000 nM
CC#CCc1nnc2n1-c1c(cc(F)c(-c3cc(F)cc4c(C)c[nH]c34)c1F)NC2(C)C [Example 69, 1-(but-2-yn-1-yl)-7,9-difluoro-8-(5-fluoro-3-methyl-1H-indol-7-yl)-4,4-dimethyl-4,5-dihydro-[1,2,4]triazolo[4,3-a]quinoxaline]	< 100 nM
COc1cc2c(c(C(F)(F)F)c1-c1cc(F)cc3c1cnn3S(C)(=O)=O)-n1c(C)nnc1C(C)(C)N2 [Example 376, 8-(6-Fluoro-1-methylsulfonyl-1H-indazol-4-yl)-7-methoxy-1,4,4-trimethyl-9-(trifluoromethyl)-5H-[1,2,4]triazolo[4,3-a]quinoxaline]	1000 to 15000 nM
Cc1c(-c2ccc(C#N)c3[nH]ccc23)c(F)cc2c1-n1c(C)nnc1C(C)(C)N2 [Example 534, 4-(7-Fluoro-1,4,4,9-tetramethyl-5H-[1,2,4]triazolo[4,3-a]quinoxalin-8-yl)-1H-indole-7-carbonitrile]	100 to 1000 nM
Cc1c[nH]c2c(-c3c(OC(F)F)cc4c(c3F)-n3c(C)nnc3C(C)(C)N4)cc(F)cc12 [Example 267, 7-(Difluoro-methoxy)-9-fluoro-8-(5-fluoro-3-methyl-1H-indol-7-yl)-1,4,4-trimethyl-5H-[1,2,4]triazolo[4,3-a]quinoxaline]	100 to 1000 nM
CCS(=O)(=O)n1ccc2c(-c3c(F)cc4c(c3C(F)F)-n3c(C)nnc3C(C)(C)N4)cccc21 [Example 461, 9-(Difluoro-methyl)-8-[1-(ethylsulfonyl)-1H-indol-4-yl]-7-fluoro-1,4,4-trimethyl-5H-[1,2,4] triazolo[4,3-a]quinoxaline]	< 100 nM
Cc1c(-c2cc(F)cc3c(C4CC4)c[nH]c23)c(Cl)cc2c1-n1c(C)nnc1C(C)(C)N2 [Example 485, 7-Chloro-8-(3-cyclopropyl-5-fluoro-1H-indol-7-yl)-1,4,4,9-tetramethyl-5H-[1,2,4]triazolo [4,3-a]quinoxaline]	< 100 nM
